Reference: ChEMBL document CHEMBL1201862, “PubChem BioAssay data set” (2004)
Counter-ions that a name gives are not always drawn.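 Grown in 96-well plates, cells were treated for 48 hours with each compound at five concentrations. Insufficient inhibition: endpoint recorded as highest concentration tested. GI50 marks 50% less growth.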 The source made the active and inactive calls. Rule as the data show it: active = GI50 up to about 1.1 µM and inactive = higher. Residues, ends and D or L forms follow the SMILES beside them. *: point of attachment. Boc = CC(C)(C)OC(=O)*

Tests used:
Test in all cases: growth of human tumour cells (NCI), 48 h
HCT-116 = system: HCT-116
A549 = system: A549
SK-MEL-5 = system: SK-MEL-5
NCI/ADR-RES = system: NCI/ADR-RES
HL-60 = system: HL-60
OVCAR-4 = system: OVCAR-4
SF-295 = system: SF-295
SK-MEL-2 = system: SK-MEL-2
NCI-H23 = system: NCI-H23
CCRF-CEM = system: CCRF-CEM
MDA-MB-231 = system: MDA-MB-231
NCI-H226 = system: NCI-H226
HCT-15 = system: HCT-15
NCI-H460 = system: NCI-H460
T47D = system: T47D
RPMI-8226 = system: RPMI-8226
UACC-257 = system: UACC-257
SR = system: SR

| SMILES | GI50 (HCT-116) | GI50 (A549) | GI50 (SK-MEL-5) | GI50 (NCI/ADR-RES) | GI50 (HL-60) | GI50 (OVCAR-4) | GI50 (SF-295) | GI50 (SK-MEL-2) | GI50 (NCI-H23) | GI50 (CCRF-CEM) | GI50 (MDA-MB-231) | GI50 (NCI-H226) | GI50 (HCT-15) [µM] | GI50 (NCI-H460) | GI50 (T47D) | GI50 (RPMI-8226) | GI50 (UACC-257) | GI50 (SR) |
| --- | --- | --- | --- | --- | --- | --- | --- | --- | --- | --- | --- | --- | --- | --- | --- | --- | --- | --- |
| [N-]=[N+]=Nc1c(Cc2ccccc2)c(Cl)nc2ccccc12 | 17.5 µM (inactive) | 36.3 µM (inactive) | 15.4 µM (inactive) | 22.4 µM (inactive) | 23.8 µM (inactive) | 42 µM (inactive) | 22.2 µM (inactive) | 16.6 µM (inactive) | 28.8 µM (inactive) | 39.8 µM (inactive) | 18.7 µM (inactive) | 16 µM (inactive) | 35.2 | 35.4 µM (inactive) | 32.6 µM (inactive) | 38.3 µM (inactive) | 33.5 µM (inactive) | – |
| CCOC(=O)c1nnsc1N/N=C\c1ccc([N+](=O)[O-])cc1 | > 100 µM (inactive) | > 100 µM (inactive) | > 100 µM (inactive) | > 100 µM (inactive) | – | > 100 µM (inactive) | > 100 µM (inactive) | > 100 µM (inactive) | > 100 µM (inactive) | > 100 µM (inactive) | 79.8 µM (inactive) | > 100 µM (inactive) | > 100 | > 100 µM (inactive) | > 100 µM (inactive) | > 100 µM (inactive) | > 100 µM (inactive) | – |
| CN(C)Cc1cc(/C=C/C(=O)c2ccc(Br)cc2)cc(CN(C)C)c1O | 14.8 µM (inactive) | 29.2 µM (inactive) | 19.6 µM (inactive) | 36.6 µM (inactive) | 6.84 µM (inactive) | – | 21.8 µM (inactive) | 26.2 µM (inactive) | – | 4.06 µM (inactive) | 14.7 µM (inactive) | – | – | 19.3 µM (inactive) | 18.5 µM (inactive) | 3.54 µM (inactive) | 17.2 µM (inactive) | – |
| COC(=O)C(Cc1c[nH]c2ccccc12)NC(=O)C(Cc1c[nH]c2ccccc12)NC(=O)C(Cc1c[nH]c2ccccc12)NC(=O)C(Cc1c[nH]c2ccccc12)NC(=O)C(Cc1c[nH]c2ccccc12)NC(=O)C(Cc1c[nH]c2ccccc12)NC(=O)OC(C)(C)C (configuration not stated) (Boc-WWWWWW-OMe; configuration not given here) | 37.3 µM (inactive) | 31.7 µM (inactive) | 19.3 µM (inactive) | – | > 100 µM (inactive) | > 100 µM (inactive) | – | 61.7 µM (inactive) | 28.5 µM (inactive) | > 100 µM (inactive) | > 100 µM (inactive) | 64 µM (inactive) | > 100 | > 100 µM (inactive) | 22.2 µM (inactive) | 57 µM (inactive) | 30.3 µM (inactive) | 82.4 µM (inactive) |
| O=C1NC(=S)NC(=O)C1C(c1ccc(Cl)cc1)C1C(=O)NC(=S)NC1=O.c1ccncc1 | > 100 µM (inactive) | > 100 µM (inactive) | > 100 µM (inactive) | > 100 µM (inactive) | > 100 µM (inactive) | > 100 µM (inactive) | > 100 µM (inactive) | > 100 µM (inactive) | > 100 µM (inactive) | > 100 µM (inactive) | > 100 µM (inactive) | > 100 µM (inactive) | > 100 | > 100 µM (inactive) | > 100 µM (inactive) | > 100 µM (inactive) | > 100 µM (inactive) | – |
| Cc1nnc2sc(Cl)nn12 | 8.95 µM (inactive) | 26.1 µM (inactive) | 12.6 µM (inactive) | 51.5 µM (inactive) | – | 16.8 µM (inactive) | 17.7 µM (inactive) | 24.1 µM (inactive) | 17.3 µM (inactive) | 3.85 µM (inactive) | 22.1 µM (inactive) | 28.6 µM (inactive) | 19.3 | 18.5 µM (inactive) | 22.9 µM (inactive) | 6.1 µM (inactive) | > 10 µM (inactive) | – |
| O=C1NC(=S)N/C1=C\c1ccc(Br)s1 | > 100 µM (inactive) | – | 39.8 µM (inactive) | – | 0.861 µM (active) | 53.1 µM (inactive) | > 100 µM (inactive) | 99.8 µM (inactive) | > 100 µM (inactive) | 25.3 µM (inactive) | > 100 µM (inactive) | 84.9 µM (inactive) | 91.2 | 70.5 µM (inactive) | – | 27.7 µM (inactive) | 61 µM (inactive) | 33.4 µM (inactive) |
| C=C1c2nc3ccccc3n2C=C(c2ccccc2)N1c1ccc(OC)cc1 | 17.5 µM (inactive) | 18.5 µM (inactive) | 11.1 µM (inactive) | 17.7 µM (inactive) | 29.8 µM (inactive) | 13.7 µM (inactive) | 10.7 µM (inactive) | 28.6 µM (inactive) | 11.4 µM (inactive) | 22.8 µM (inactive) | 40.2 µM (inactive) | 11 µM (inactive) | 6.9 | 11.7 µM (inactive) | – | 12.4 µM (inactive) | 31.8 µM (inactive) | 17.7 µM (inactive) |
| O=c1[nH]nc(Cc2ccc(Cl)cc2)n1Nc1ccccc1 | > 100 µM (inactive) | > 100 µM (inactive) | > 100 µM (inactive) | > 100 µM (inactive) | – | > 100 µM (inactive) | > 100 µM (inactive) | > 100 µM (inactive) | > 100 µM (inactive) | > 100 µM (inactive) | > 100 µM (inactive) | > 100 µM (inactive) | > 100 | > 100 µM (inactive) | > 100 µM (inactive) | – | > 100 µM (inactive) | – |
| CN[C@@H](C)[C@@H](O)c1ccccc1 [PSEUDOEPHEDRINE HYDROCHLORIDE] | > 100 µM (inactive) | > 100 µM (inactive) | > 100 µM (inactive) | > 100 µM (inactive) | > 100 µM (inactive) | > 100 µM (inactive) | > 100 µM (inactive) | > 100 µM (inactive) | > 100 µM (inactive) | > 10 µM (inactive) | > 10 µM (inactive) | > 100 µM (inactive) | > 100 | > 100 µM (inactive) | > 100 µM (inactive) | > 100 µM (inactive) | > 100 µM (inactive) | – |
| S=C(NCc1ccccc1)c1nc[nH]c1C(=S)NCc1ccccc1 | 5.64 µM (inactive) | 3.89 µM (inactive) | – | 3.41 µM (inactive) | 7.69 µM (inactive) | 6.65 µM (inactive) | 4.57 µM (inactive) | 9.08 µM (inactive) | 6.93 µM (inactive) | 2.96 µM (inactive) | 10 µM (inactive) | 1.78 µM (inactive) | 3.83 | 4.06 µM (inactive) | 4.35 µM (inactive) | 5.19 µM (inactive) | 10.1 µM (inactive) | – |
| C[C@@H]1CCC2C(C)(C)C(/C=C\C=O)C3(C)OC213 (some centres not stated) | 27.9 µM (inactive) | > 100 µM (inactive) | 20.3 µM (inactive) | 30 µM (inactive) | – | 54.5 µM (inactive) | 35.1 µM (inactive) | 42.9 µM (inactive) | 35.6 µM (inactive) | – | 49.2 µM (inactive) | – | 25.4 | 42 µM (inactive) | – | 28.7 µM (inactive) | 45.8 µM (inactive) | – |
| COC(=O)CC(c1ccccc1)C(C#N)(OP1(=O)OC(c2ccccc2)C(C)N1C)c1ccccc1 (configuration not stated) | 48.4 µM (inactive) | 35.2 µM (inactive) | 19 µM (inactive) | 50.5 µM (inactive) | 26.2 µM (inactive) | 33.3 µM (inactive) | 71.6 µM (inactive) | 27.9 µM (inactive) | 57.3 µM (inactive) | 37.8 µM (inactive) | > 100 µM (inactive) | – | 41.2 | 41.1 µM (inactive) | 68.2 µM (inactive) | 24.7 µM (inactive) | 34.9 µM (inactive) | – |
| O=C(Nc1ccc2ccccc2c1)Nn1cnnc1 | > 100 µM (inactive) | > 100 µM (inactive) | > 100 µM (inactive) | – | > 100 µM (inactive) | > 100 µM (inactive) | > 100 µM (inactive) | > 100 µM (inactive) | > 100 µM (inactive) | > 100 µM (inactive) | > 100 µM (inactive) | 35.3 µM (inactive) | > 100 | > 100 µM (inactive) | > 100 µM (inactive) | > 100 µM (inactive) | > 100 µM (inactive) | > 100 µM (inactive) |
| CCN1CCCC(Nc2cc(C)nc(NC(=N)Nc3ccc(Cl)c(Cl)c3)n2)C1 (configuration not stated) | 1.26 µM (inactive) | 1.91 µM (inactive) | 2.08 µM (inactive) | 2.78 µM (inactive) | 0.216 µM (active) | 1.85 µM (inactive) | 1.07 µM (active) | 2.04 µM (inactive) | 1.77 µM (inactive) | 0.63 µM (active) | 1.62 µM (inactive) | – | 1.74 | 1.26 µM (inactive) | – | 0.455 µM (active) | – | 1.2 µM (inactive) |
| COC(=O)C1=C(C(=O)OC)SC(=C2c3ccsc3-c3sccc32)S1 | 25.9 µM (inactive) | 37.2 µM (inactive) | 31.9 µM (inactive) | 62.8 µM (inactive) | 24 µM (inactive) | > 10 µM (inactive) | 17.6 µM (inactive) | – | 16.1 µM (inactive) | 38.1 µM (inactive) | > 100 µM (inactive) | 27.4 µM (inactive) | 53.7 | > 100 µM (inactive) | – | 76.9 µM (inactive) | 64.4 µM (inactive) | 34 µM (inactive) |
| Cn1ccnc1Oc1ccc(Cl)cc1 | 12 µM (inactive) | 34.2 µM (inactive) | 14.1 µM (inactive) | 16.7 µM (inactive) | 0.631 µM (active) | 6.12 µM (inactive) | – | 16.4 µM (inactive) | 17.5 µM (inactive) | – | 14.8 µM (inactive) | 13 µM (inactive) | 11.7 | 30.3 µM (inactive) | 2.18 µM (inactive) | 0.49 µM (active) | 9.75 µM (inactive) | – |
